Counter-ions that a name gives are not always drawn. Like-named read-outs stand apart in the source and are kept apart here.
Tests used:
ASG-10 [1] = experiment: CYP activities in ASG-10: metabolite formation from specific substrates (LC-TQMS); details: non-induced cells, combined substrates 2; 5; 10 µM, 24 h, 19 °C
CYP2K1 = test system: CYP2K1; parameters: method as in doi:10.1002/etc.5620161220; details: juvenile Atlantic salmon; cited from earlier work
CYP3A27 = test system: CYP3A27; parameters: method as in doi:10.1002/etc.5620161220; details: juvenile Atlantic salmon; cited from earlier work
CYP1A1 [2] = test system: CYP1A1; parameters: method as in doi:10.1002/etc.5620161220; details: juvenile Atlantic salmon; cited from earlier work
[3] = CYP activities in salmon liver microsomes (SLMs) and S9; details: both SLMs (2 mg/mL protein) and S9 (4 mg/mL protein), 20 °C, up to 60 min
[4] = parameters: method as in doi:10.1016/S0166-445X(96)00792-8; details: channel catfish; cited from earlier work
[5] = Incubation of N-acetylated BZ (AcBZ) in SLMs, hydroxylation; assay type: in vitro ADME, Atlantic salmon; details: AcBZ as starting substance, 1 h
Description: A volume of 30 µL of 1 mg/mL BZ in 100% MeOH was evaporated (40 °C, N2) in a 1.5 mL vial. The residue was redissolved in 100 µL acetic anhydride (Sigma) and 100 µL pyridine (Sigma). The vial was placed at room temperature for 18 h. Subsequently, the reaction was stopped by the addition of 200 µL 100% MeOH. After evaporation, the residue was dissolved in 150 µL 100% MeOH (solution A). As control, 30 µL of BZ solution was evaporated and re-dissolved in 150 µL 100% MeOH (solution B). Afterwards, 3 µL of solutions A and B were incubated in SLMs as described above.

ASG-10 [6] = experiment: BZ metabolism in ASG-10 (LC-HRMS/MS); assay type: in vitro ADME, Atlantic salmon (Salmo salar); details: 303 µM BZ, 24 h, 45,000 or 90,000 cells/well, LC-HRMS peak areas
Description: BZ, an anesthetic commonly used in aquaculture, was used to evaluate the potential activity of N-acetyltransferases (NAT) and esterases in ASG-10, SLMs and S9. The production of BZ-related metabolites was determined by liquid chromatography high-resolution tandem mass spectrometry (LC-HRMS/MS). When available, reference standards were used for the specification of metabolites.
BZ metabolism was investigated in ASG-10 cells plated in a 96-well plate as described in Section 2.2. The culture medium was replaced by fresh medium containing BZ (Table 1).
(§1) BZ biotransformation products were determined using a Q Exactive™ hybrid quadrupole-Orbitrap mass spectrometer equipped with a heated electrospray ion source (HESI-II) and coupled to a Vanquish UHPLC system (Thermo Fisher Scientific). […]
(§2) Mass spectra were acquired in the full scan mode, applying sequential data-dependent top 5 analysis (ddMS2-top5) with an inclusion list containing masses of interest. […] BZ and BZ-related compounds were determined by targeted parallel reaction monitoring (PRM). […]
The mobile phase was composed of solvent A (water) and solvent B (MeOH), both containing 0.1% formic acid. […] Raw data were acquired by Xcalibur (Version 4.0, Thermo Fisher Scientific), and molecular formula assignments and mass error were evaluated within the same software (Elemental Composition tab). […]

CYP1A1 [7] = test system: CYP1A1; parameters: method as in PMID 12413795; details: BNF exposure; cited from earlier work
CYP1A [8] = test system: CYP1A; parameters: method as in doi:10.1002/etc.5620160509; details: cited from earlier work
CYP1A [9] = test system: CYP1A; parameters: method as in doi:10.1002/etc.5620160509; details: PLHC-1, 24 h; cited from earlier work
CYP1A [10] = experiment: CYP1A immunochemical analysis (immunoblot) in BNF-stimulated ASG-10; assay type: cell-based, Atlantic salmon (Salmo salar); details: 24 h
Description: The ASG-10 cells were seeded into 6-well plates as described in Section 2.2. After two days, the cells were stimulated with BNF (1–100 nM, 24 h), a well-known non-toxic inducer of CYP1A protein expression. After exposure, the cells were washed twice in ice-cold PBS and placed at −70 °C until the next day. The cells were then scraped in cell lysis buffer with 0.8% SDS and 1% proteinase inhibitor cocktail added and centrifuged (10,000× g, 1 min) through use of the QIAshredder for homogenization. The protein concentrations were quantified by using the Bio-Rad DC kit (Hercules, CA, USA) and the samples were adjusted to equal protein concentration with lysis buffer before being denatured through the addition of NuPage lithium dodecyl sulfate (LDS) sample buffer and NuPage reducing agent as described by the manufacturer (Invitrogen, Waltham, MA, USA). Blotting was performed using the NuPage Novex system from Invitrogen (Thermo Fisher), applying […] protein per well on a 4–12% NuPage BisTris gel. Separation was performed under reducing conditions for 40 min at 200 V in 3-(N-morpholino) propane sulfonic acid (MOPS)–SDS running buffer using the Novex Sharp pre-stained standard with a range of 3.5–260 kDa. […]

CYP1A [11] = test system: CYP1A; parameters: method as in PMID 1897246; details: rainbow trout liver primary cells, 3.6 to 360 nM BNF, 48 h, dose-dependent; cited from earlier work
CYP1A [12] = test system: CYP1A; parameters: method as in PMID 10630570; details: primary carp hepatocytes, 20 nM, 18 h; cited from earlier work
CYP1A [13] = experiment: EROD assay in BNF-stimulated ASG-10; assay type: cell-based, Atlantic salmon (Salmo salar); details: ASG-10, BNF 1 to 100 nM, 24 h
Description: CYP1A induction in BNF-stimulated ASG-10 was measured using the ethoxyresorufin-O-deethylase (EROD) assay. CYP1A converts 7-ethoxyresorufin to resorufin, which can be measured by fluorescence spectroscopy. The assay was performed as described in [17], with minor modifications. Briefly, the cells were seeded in a black 96-well plate as described in Section 2.2. After two days, the cells were incubated with the CYP1A inducer β-naphthoflavone (BNF; 1–100 nM) for 24 h. BNF was dissolved in DMSO. The final DMSO concentration in the cell culture was 0.1%. Appropriate controls containing the same amount of DMSO were included in each experiment. The next day, the culture medium was replaced with 200 µL EROD assay media (DMEM w/o phenol red; 10% FBS, 8 µM 7-ethoxyresorufin), and resorufin fluorescence (excitation: 530 nm/emission: 580 nm) was detected after 60 min using a Spectramax i3x plate reader.

[14] = cited from earlier work
[15] = parameters: method as in PMID 1897251; details: rainbow trout, within 3 h, mainly as AcBZ; cited from earlier work
methemoglobin = test system: methemoglobin; parameters: method as in PMID 32974865; details: immersion in a sedating BZ dose or repeated anesthesia; cited from earlier work
ASG-10 [16] = experiment: Alamar Blue assay, metabolic activity/viability of ASG-10; assay type: cell-based, Atlantic salmon (Salmo salar); details: ASG-10, 121 or 303 µM BZ, 24 h
Description: Alamar Blue assay: The metabolic activity/viability of the ASG-10 cell line was measured using the Alamar Blue assay according to the manufacturer’s protocol (Thermo Fisher). After exposure to test compounds with potential cell toxicity, Alamar Blue was added to the cell culture, and incubated for 3 h. […] The fluorescence (excitation: 555 nm/emission: 585 nm) was quantified using a Spectramax i3x plate reader (Molecular Devices, San Jose, CA, USA).

[17] = cited from earlier work; remark: listed apart in the source
ASG-10 [18] = experiment: CellTox Green cytotoxicity assay in ASG-10; assay type: cell-based, Atlantic salmon (Salmo salar); details: ASG-10, 121 or 303 µM BZ, 48 h
Description: CellTox™ Green assay: The non-toxic dye CellTox™ Green stains DNA in cells with impaired membrane integrity. Binding interactions with DNA produce a fluorescence signal that is proportional to cytotoxicity (necrotic, late apoptotic cells). CellTox™ Green dye was added to the cells as described by the manufacturer (Promega) and fluorescence visualized by microscopy (Zeiss Observer A1, Carl Zeiss, Oberkochen, Germany).

Zebrafish embryos = test system: Zebrafish embryos; parameters: method as in PMID 27571242; details: 48 h exposure; cited from earlier work
[19] = parameters: method as in doi:10.5772/intechopen.91700; details: cited from earlier work
[20] = UGT activities in salmon liver microsomes (SLMs) and S9; details: SLMs (2 mg/mL) and S9 (4 mg/mL), 20 °C, up to 60 min
[21] = BZ metabolism in SLMs and S9 (LC-HRMS/MS); details: SLMs 1 µM BZ, S9 3 µM BZ (Figure 9 legend: 1 µM), 1 h
Description: The production of BZ-related metabolites was determined by liquid chromatography high-resolution tandem mass spectrometry (LC-HRMS/MS).
Additionally, BZ metabolism was investigated in SLMs (1 µM BZ) and S9 (3 µM BZ) (Table 1). The incubations were first performed separately for phase I and phase II metabolism, and a combined assay was performed afterwards. The reaction mixture (total assay volume 0.5 mL) contained 0.8 mM NADPH, 0.7 mM NADP+, 7.5 mM UDPGA and 0.3 mM UDPAG. Aliquots (150 µL) were drawn at 0, 30 and 60 min and mixed with an equal volume of ice-cold 100% MeCN. […] After filtration (Costar Spin-X® 0.22 mm Nylon filter; Corning, Inc.; Corning, NY, USA), the concentrated samples were analyzed using LC-HRMS/MS.
as §1, §2

[22] = different fish species including rainbow trout and Atlantic salmon

Cc1ncc2n1-c1ccc(Cl)cc1C(c1ccccc1F)=NC2O (stereo not shown) [4-OH-MDZ, 4-hydroxymidazolam]
Formation of metabolites of specific CYP substrates in ASG-10 (ASG-10 [1]): observed

CCCCCCCCCc1ccc(O)cc1 [4-nonylphenol]
CYP2K1 activity in liver (CYP2K1): dose-dependently reduced | CYP3A27 activity in liver (CYP3A27): dose-dependently reduced | CYP1A1 activity in liver (CYP1A1 [2]): dose-dependently reduced

O=c1[nH]c2cc(Cl)c(O)cc2o1 [6-OH-CH, 6-hydroxychlorzoxazone]
Formation of CYP-specific metabolites / substrate conversion in SLMs and S9 [3]: low

CCOC(=O)c1ccc(NC(C)=O)cc1 [AcBZ, acetylbenzocaine]
time detected in most tissues after water exposure to BZ [4]: up to 144 h | Hydroxylation product after incubation in SLMs [5]: no longer detectable | BZ metabolites produced in ASG-10 cells (ASG-10 [6]): major biotransformation product

CC(=O)Nc1ccc(C(=O)O)cc1 [AcPABA, p-acetaminobenzoic acid]
time detected in most tissues after water exposure to BZ [4]: up to 144 h

O=c1cc(-c2ccccc2)oc2ccc3ccccc3c12 [BNF, β-naphthoflavone]
CYP1A1 induction in salmon liver (CYP1A1 [7]): can be induced | increase in EROD enzyme activity (CYP1A [8]; PLHC-1, 100 nM BNF): eightfold | increase in EROD enzyme activity (CYP1A [8]; PLHC-1, 1 µM BNF): 100 fold | BNF concentration required to produce a detectable CYP1A protein increase (CYP1A [9]): 1 µM | CYP1A protein increase (CYP1A [10]; ASG-10, 1 nM BNF): visible CYP1A protein increase | CYP1A protein (immunochemical analysis) (CYP1A [10]; ASG-10, BNF 1 to 100 nM): concentration-dependent increase | maximum EROD rate increase (CYP1A [11]): nine-fold | increase in the EROD rate (CYP1A [12]): 30 fold | CYP1A enzyme activity (EROD assay) (CYP1A [13]): concentration-dependent increase

CCOC(=O)c1ccc(N)cc1 [BZ, ethyl 4-aminobenzoate]
solubility in more lipidic solvents relative to water ([14]; MeOH and chloroform): ~1000 times | water solubility ([14]; non-salt BZ, 20 °C): 400 µg/mL | time detected in most tissues after water exposure to BZ [4]: up to 144 h | share of applied BZ dose eliminated through the gills [15]: about 59% | blood levels of methemoglobin (methemoglobin): increased blood levels of methemoglobin | Metabolic activity or viability (Alamar Blue) (ASG-10 [16]): did not affect | distribution volumes [17, 22]: rather high | mean residence times [17, 22]: below 15 min | plasma half-life ([17]; salmonids): less than 2 h | time to maximal concentrations in blood ([17]; under water exposure): less than 2 min | Cytotoxicity (Celltox Green assay) (ASG-10 [18]): no cytotoxicic effects | AcBZ and PABA together as share of the total BZ amount (Zebrafish embryos): 90% | n-octanol/water coefficient (pKOW) [19]: 1.44

CCOC(=O)c1ccc(NO)cc1 [BZOH, Benzocaine hydroxylamine]
BZ metabolites produced in ASG-10 cells (ASG-10 [6]): produced

CN1CC[C@@]23CCCC[C@@H]2[C@@H]1Cc1ccc(O)cc13 [DOR, dextrophan]
Formation of metabolites of specific CYP substrates in ASG-10 (ASG-10 [1]): observed

CC(=O)NCCc1c[nH]c2ccc(O[C@@H]3O[C@H](C(=O)O)[C@@H](O)[C@H](O)[C@H]3O)cc12 [NAS-GlcA, N-acetyl serotonin β-D-glucuronide]
Formation of UGT-specific metabolites in SLMs and S9 [20]: low

C=CCN1CC[C@]23c4c5ccc(O[C@@H]6O[C@H](C(=O)O)[C@@H](O)[C@H](O)[C@H]6O)c4O[C@H]2C(=O)CC[C@@]3(O)[C@H]1C5 [NLX-GlcA, naloxone-3β-D glucuronide]
Formation of UGT-specific metabolites in SLMs and S9 [20]: highest metabolite level

Nc1ccc(C(=O)O)cc1 [PABA, p-aminobenzoic acid]
BZ metabolites in SLM and S9 incubations [21]: not detectable

CN1CCN(CCCN2c3ccccc3Sc3ccc(C(F)(F)F)cc32)CC1 [TFP, trifluoperazine dihydrochloride]
Formation of UGT-specific metabolites in SLMs and S9 [20]: not measurable

From publication PMC10303838, “Atlantic Salmon Gill Epithelial Cell Line (ASG-10) as a Suitable Model for Xenobiotic Biotransformation” (Metabolites, 2023)
